According to ChEMBL document CHEMBL4385659, “Essential structure of orexin 1 receptor antagonist YNT-707, Part IV: The role of D-ring in 4,5-epoxymorphinan on the orexin 1 receptor antagonistic activity” (Bioorg Med Chem Lett, 2019):

Columns and labels:
[1] = target: T1, Orexin/Hypocretin receptor type 1 (Homo sapiens, UniProt O43613); assay: Antagonist activity at human OX1R expressed in CHOK1 cells assessed as inhibition of orexin A-induced intracellular Ca2+ release preincubated for 15 mins followed by orexin A addition by Fura 2-AM dye based fluorescence assay based by Cheng-Prusoff equation analysis; assay type: functional, cell-based
T1 sequence (O43613 whole entry): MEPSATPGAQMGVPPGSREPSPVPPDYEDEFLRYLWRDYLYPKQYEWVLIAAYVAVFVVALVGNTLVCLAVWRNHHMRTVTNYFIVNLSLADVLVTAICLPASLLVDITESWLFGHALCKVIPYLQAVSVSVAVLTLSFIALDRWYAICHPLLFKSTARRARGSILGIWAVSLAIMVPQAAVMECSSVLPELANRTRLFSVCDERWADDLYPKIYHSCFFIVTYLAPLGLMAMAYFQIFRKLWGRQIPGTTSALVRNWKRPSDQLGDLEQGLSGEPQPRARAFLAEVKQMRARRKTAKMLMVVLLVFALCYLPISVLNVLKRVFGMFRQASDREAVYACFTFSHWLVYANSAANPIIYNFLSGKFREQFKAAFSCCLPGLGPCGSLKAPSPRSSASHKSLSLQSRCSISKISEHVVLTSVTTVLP

[2] = target: T2, Orexin/Hypocretin receptor type 1 (Homo sapiens) (UniProt O43613); assay: Antagonist activity at human OX1R expressed in CHOK1 cells assessed as inhibition of orexin A-induced intracellular Ca2+ release at 10 uM preincubated for 15 mins followed by orexin A addition by Fura 2-AM dye based fluorescence assay […]; assay type: functional, cell-based
T2 sequence (whole entry): T1 sequence (O43613 whole entry)

| SMILES | Ki [1] | inhibition [2] |
| --- | --- | --- |
| COc1ccc2c3c1O[C@H]1[C@H](N(C)C(=O)/C=C/c4ccoc4)CC[C@](O)([C@@H]31)[C@H](N(CC1CC1)S(=O)(=O)c1ccccc1)C2 | 101 nM |  |
| COc1ccc2c3c1O[C@@H]1[C@H]3[C@@H](CC[C@H]1N(C)C(=O)/C=C/c1ccoc1)[C@H](N(CC1CC1)S(=O)(=O)c1ccccc1)C2 | 20.9 nM |  |
| COc1ccc2c3c1O[C@H]1[C@@H](N(C)C(=O)/C=C/c4ccoc4)CC[C@](O)([C@@H]31)[C@H](N(CC1CC1)S(=O)(=O)c1ccccc1)C2 |  | 11% |
| COc1ccc2c(c1)[C@H]1C[C@H](N(C)C(=O)/C=C/c3ccoc3)CC[C@@]1(O)[C@H](N(CC1CC1)S(=O)(=O)c1ccccc1)C2 | 842 nM |  |
